Where a SMILES comes first, the peptide text is derived from it. [ ]: non-standard residue; d: D form. The star is where a group is joined. ξ: configuration not given here. Doxorubicin(3'-N) = COc1cccc2c1C(=O)c1c(O)c3c(c(O)c1C2=O)C[C@@](O)(C(=O)CO)C[C@@H]3O[C@H]1C[C@H](N*)[C@H](O)[C@H](C)O1; X2 = CC(C)(C)c1nc(-c2cccc(NS(=O)(=O)c3c(F)cccc3F)c2F)c(-c2ccnc(N*)n2)s1; Thyronine(3,5,3'-I3) = N[C@@H](Cc1cc(I)c(Oc2ccc(O)c(I)c2)c(I)c1)C(=O)O; Mal(CH2CH2O)6CH2CH2CO = O=C1C=CC(=O)N1CCOCCOCCOCCOCCOCCOCCC(=O)*; MaleimidoPEG4propanoyl = O=C1C=CC(=O)N1CCOCCOCCOCCOCCC(=O)*; Hexanoyl(6-maleimido) = O=C1C=CC(=O)N1CCCCCC(=O)*; Propanoyl(3-maleimido) = O=C1C=CC(=O)N1CCC(=O)*; PEG6 = NCCOCCOCCOCCOCCOCCOCCC(=O)O; X3 = O=C1C=CC(=O)N1CCOCCOCCC(=O)*; PEG4 = NCCOCCOCCOCCOCCC(=O)O; PEG3 = NCCOCCOCCOCCC(=O)O; PEG2 = NCCOCCOCCC(=O)O; ξL = CC(C)CC(N)C(=O)O
Experiments:
[1] = Water solubility test (observation and HPLC); assay type: physicochemical; conditions: thermodynamic from solid
Description: The compounds prepared in accordance with the examples of the disclosure and the reference compounds C1, C2, C3 and C4 were lyophilized (−70° C.).

NAFLD model mice = experiment: Nonalcoholic fatty liver disease (NAFLD) model mice, serum HDL-C and LDL-C; assay type: in vivo; conditions: NAFLD (high-fat diet) C57 mice, IV twice a week for 8 weeks, 12 hour after last administration, normal group 100%; for Change from normal group HDL-C: serum HDL-C; for Change from normal group LDL-C: serum LDL-C
Description: • Methods: C57 mice were randomly divided into normal group (standard diet), model group (high-fat diet), simvastatin group (positive control, 3 mg/kg) and drug group (50 mg/kg), with 6 mice in each group. The normal group was fed with standard diet, and the other groups were fed with high-fat diet to induce NAFLD model. At the same time of modeling, the mice in each group were given the corresponding dose of 48 umol/kg medicine IV twice a week for 8 weeks in total. 12 hour after the last administration, the serum biochemical indicators were determined by automatic biochemical analyzer: High density lipoprotein cholesterol (HDL-C), and low density lipoprotein (LDL-C).

[2] = system: Human hepatoma HepG2 cells; experiment: Human liver cancer HepG2 tumors in nude mice; assay type: in vivo; conditions: for inhibition in vivo at 54 µmol/kg: Mus musculus, HepG2, iv, 672 h, read-out: Tumor inhibition rate (%) Day 28; for Tumor volume (mm^3) Day 28: 54 umol/kg IV once a week for 4 weeks
Description: • 1. Animals: nude mice aged 6-8 weeks, all female. • 2. Preparation of tumor models
Human hepatoma HepG2 cells were purchased from ATCC and identified according to the instructions provided. […] Randomization was performed when the tumor size reached 100 mm^3.
Treatment was then initiated, and the day of initiation of treatment was counted as Day 1. • 3) Treatment process
According to the clinical application of the corresponding compound, the drug was administered intravenously (IV). The compound and the control drug were administered at a dose of 54 umol/kg, and DOX could only be administered at a dose of 18 umol/kg due to toxicity limitations.

CT26 tumor = CT26 tumor immune model, tumor suppression and CD8+ T cell analysis; assay type: in vivo, BALB/c mice; conditions: for CD8:CD45 (%): CD8-positive among CD45-positive cells in tumor, flow cytometry; for Tumor inhibition rate (%) Day 28 / Tumor volume (mm^3) Day 28: drug 36 umol/kg once a week for three weeks, PD-1 antibody 5 mg/kg
Description: • 1) CT26 cells were purchased from ATCC. […] The corresponding 5×10^6 cells were injected subcutaneously into the back of […] mice. After the size of tumors reached at least 100 mm^3, the mice were randomized into groups. Treatment was then initiated, with the day of treatment initiation being Day 1. • 3) The course of treatment. The drug was administered at an equimolar dose of 36 umol/kg. The control group was given normal saline. The drug was administered once a week for three week. • 4) Tumor CD8+ T cell analysis. Tumor tissue was homogenized, individual cells in the tumor were filtered, dissociated and washed twice with buffer, and then incubated with leukocyte common antigen CD45-PE and CD8-FITC-labeled antibodies for 1 hour at room temperature. The cells were washed twice with phosphate buffered saline containing 1% fetal bovine serum, and then the proportion of T lymphocyte antigen (CD8)-positive cells in leukocyte common antigen (CD45)-positive cells was analyzed by flow cytometry. An increase in the ratio indicates an increase in T lymphocytes and therefore an improvement in the immunity of the animal to the tumor. • 5) The grouping and test results are shown in Table 7.

Q: Which solubility [1] does the source give for `C[C@H](NC(=O)CCCCCN1C(=O)C=CC1=O)C(=O)N[C@@H](C)C(=O)N[C@@H](CC(N)=O)C(=O)N[C@@H](Cc1cc(I)c(Oc2ccc(O)c(I)c2)c(I)c1)C(=O)O` [QHL-150-T3] ({Hexanoyl(6-maleimido)}-AAN[Thyronine(3,5,3'-I3)]-OH) here?
A: > 10000 µg/mL

Q: And the “Change from normal group HDL-C” value (NAFLD model mice)?
A: 86.8%

Q: And the “Change from normal group LDL-C” value (NAFLD model mice)?
A: 119.32%

Q: With `COc1cccc2c1C(=O)c1c(O)c3c(c(O)c1C2=O)C[C@@](O)(C(=O)CO)C[C@@H]3O[C@H]1C[C@H](NC(=O)[C@H](CC(C)C)NC(=O)[C@H](CC(N)=O)NC(=O)[C@H](C)NC(=O)[C@H](C)NC(=O)[C@H](CC(=O)O)NC(=O)CCCCCN2C(=O)C=CC2=O)[C@H](O)[C@H](C)O1` [QHL-120-DOX] ({Hexanoyl(6-maleimido)}-DAANL-{Doxorubicin(3'-N)}) as the molecule, how does the inhibition in vivo at 54 µmol/kg [2] read?
A: 92.8%

Q: With `C[C@H](NC(=O)CCOCCOCCOCCNC(=O)CCN1C(=O)C=CC1=O)C(=O)N[C@@H](C)C(=O)N[C@H](CC(N)=O)C(=O)N[C@@H](Cc1cc(I)c(Oc2ccc(O)c(I)c2)c(I)c1)C(=O)O` [QHL-158-T3] ({Propanoyl(3-maleimido)-PEG3}-AA[dN][Thyronine(3,5,3'-I3)]-OH) as the molecule, how does the solubility [1] read?
A: > 10000 µg/mL

Q: What about the “Change from normal group HDL-C” value (NAFLD model mice) of the same molecule?
A: 91.9%

Q: What about the “Change from normal group LDL-C” value (NAFLD model mice) of the same molecule?
A: 103.6%

Q: For `CCC(C)(C)C(=O)O[C@H]1C[C@@H](C)C=C2C=C[C@H](C)[C@H](CC[C@@H]3C[C@@H](O)CC(=O)O3)[C@H]21` [simvastatin, reference compound], which “Change from normal group HDL-C” value (NAFLD model mice) is on record?
A: 86.3%

Q: What about the “Change from normal group LDL-C” value (NAFLD model mice) of the same molecule?
A: 118.3%

Q: What does the source list for `COc1cccc2c1C(=O)c1c(O)c3c(c(O)c1C2=O)C[C@@](O)(C(=O)CO)C[C@@H]3O[C@H]1C[C@H](NC(=O)[C@H](CC(C)C)NC(=O)[C@H](CC(N)=O)NC(=O)[C@H](C)NC(=O)[C@H](C)NC(=O)CCOCCOCCN2C(=O)C=CC2=O)[C@H](O)[C@H](C)O1` [QHL-009-DOX] (X3-AANL-{Doxorubicin(3'-N)})?
A: Tumor volume (mm^3) Day 28 [2]: 0 mm^3; inhibition in vivo at 54 µmol/kg [2]: 100%

Q: Which results are given for `CC(C)CC(NC(=O)[C@@H](CC(N)=O)NC(=O)[C@@H](C)NC(=O)[C@@H](C)NC(=O)CCOCCOCCOCCNC(=O)CCN1C(=O)C=CC1=O)C(=O)Nc1nccc(-c2sc(C(C)(C)C)nc2-c2cccc(NS(=O)(=O)c3c(F)cccc3F)c2F)n1` (stereo partly drawn) [QHL-090-dabrafenib] ({Propanoyl(3-maleimido)-PEG3}-[dA][dA][dN][ξL]-X2)?
A: solubility [1]: > 10000 µg/mL; CD8:CD45 (%) (CT26 tumor): 7.4%; therapeutic effect combined with PD-1, in words (CT26 tumor; combined with PD-1 versus single drug): a certain synergistic effect; Tumor inhibition rate (%) Day 28 (CT26 tumor): 68.7%; Tumor volume (mm^3) Day 28 (CT26 tumor): 589.7 ± 247.4 mm^3

Q: What does the source list for `C[C@H](NC(=O)CCOCCOCCOCCOCCNC(=O)CCN1C(=O)C=CC1=O)C(=O)N[C@@H](C)C(=O)N[C@@H](CC(N)=O)C(=O)N[C@@H](Cc1cc(I)c(Oc2ccc(O)c(I)c2)c(I)c1)C(=O)O` [QHL-159-T3] ({Propanoyl(3-maleimido)-PEG4}-AAN[Thyronine(3,5,3'-I3)]-OH)?
A: solubility [1]: > 10000 µg/mL; Change from normal group HDL-C (NAFLD model mice): 97.7%; Change from normal group LDL-C (NAFLD model mice): 105.3%

Q: With `COc1cccc2c1C(=O)c1c(O)c3c(c(O)c1C2=O)C[C@@](O)(C(=O)CO)C[C@@H]3O[C@H]1C[C@H](NC(=O)[C@H](CC(C)C)NC(=O)[C@H](CC(N)=O)NC(=O)[C@H](C)NC(=O)[C@H](C)NC(=O)CCOCCOCCOCCOCCN2C(=O)C=CC2=O)[C@H](O)[C@H](C)O1` [QHL-011-DOX] (MaleimidoPEG4propanoyl-AANL-{Doxorubicin(3'-N)}) as the molecule, how does the “Tumor volume (mm^3) Day 28” value [2] read?
A: 98.1 ± 48.4 mm^3

Q: What about the inhibition in vivo at 54 µmol/kg [2] of the same molecule?
A: 96.6%

Q: What does the source list for `C[C@H](NC(=O)CCOCCOCCOCCOCCOCCOCCNC(=O)CCN1C(=O)C=CC1=O)C(=O)N[C@@H](C)C(=O)N[C@H](CC(N)=O)C(=O)N[C@@H](Cc1cc(I)c(Oc2ccc(O)c(I)c2)c(I)c1)C(=O)O` [QHL-160-T3] ({Propanoyl(3-maleimido)-PEG6}-AA[dN][Thyronine(3,5,3'-I3)]-OH)?
A: solubility [1]: > 10000 µg/mL; Change from normal group HDL-C (NAFLD model mice): 89.4%; Change from normal group LDL-C (NAFLD model mice): 117.5%

Q: Which solubility [1] does the source give for `C[C@H](NC(=O)CCOCCOCCNC(=O)CCN1C(=O)C=CC1=O)C(=O)N[C@@H](C)C(=O)N[C@@H](CC(N)=O)C(=O)N[C@@H](Cc1cc(I)c(Oc2ccc(O)c(I)c2)c(I)c1)C(=O)O` [QHL-157-T3] ({Propanoyl(3-maleimido)-PEG2}-AAN[Thyronine(3,5,3'-I3)]-OH) here?
A: > 10000 µg/mL

Q: And the “Change from normal group HDL-C” value (NAFLD model mice)?
A: 94.8%

Q: And the “Change from normal group LDL-C” value (NAFLD model mice)?
A: 110.7%

Q: With `CC(C)CC(NC(=O)[C@@H](CC(N)=O)NC(=O)[C@@H](C)NC(=O)[C@@H](C)NC(=O)CCOCCOCCNC(=O)CCN1C(=O)C=CC1=O)C(=O)Nc1nccc(-c2sc(C(C)(C)C)nc2-c2cccc(NS(=O)(=O)c3c(F)cccc3F)c2F)n1` (stereo partly drawn) [QHL-087-dabrafenib] ({Propanoyl(3-maleimido)-PEG2}-[dA][dA][dN][ξL]-X2) as the molecule, how does the solubility [1] read?
A: > 10000 µg/mL

Q: What about the “CD8:CD45 (%)” value (CT26 tumor) of the same molecule?
A: 6.4%

Q: And the “Tumor inhibition rate (%) Day 28” value (CT26 tumor)?
A: 64.0%

Q: And the “Tumor volume (mm^3) Day 28” value (CT26 tumor)?
A: 678.4 ± 348.7 mm^3

Q: With `COc1cccc2c1C(=O)c1c(O)c3c(c(O)c1C2=O)C[C@@](O)(C(=O)CO)C[C@@H]3O[C@H]1C[C@H](NC(=O)[C@H](CC(C)C)NC(=O)[C@H](CC(N)=O)NC(=O)[C@H](C)NC(=O)[C@H](C)NC(=O)CCOCCOCCOCCNC(=O)CCN2C(=O)C=CC2=O)[C@H](O)[C@H](C)O1` [QHL-090-DOX] as the molecule, how does the inhibition in vivo at 54 µmol/kg [2] read?
A: 100%

Q: Which “CD8:CD45 (%)” value (CT26 tumor) does the source give for `CCOCc1nc2c(NC(=O)OCc3ccc(NC(=O)[C@H](CC(N)=O)NC(=O)[C@H](C)NC(=O)[C@H](C)NC(=O)CCCCCN4C(=O)C=CC4=O)cc3)nc3ccccc3c2n1CC(C)(C)O` [QHL-140-resiquimod] here?
A: 15.4%

Q: What about the “Tumor inhibition rate (%) Day 28” value (CT26 tumor) of the same molecule?
A: 81.9%

Q: And the “Tumor volume (mm^3) Day 28” value (CT26 tumor)?
A: 342.8 ± 112.9 mm^3

Q: For `COc1cccc2c1C(=O)c1c(O)c3c(c(O)c1C2=O)C[C@@](O)(C(=O)CO)C[C@@H]3O[C@H]1C[C@H](NC(=O)[C@H](CC(C)C)NC(=O)[C@H](CC(N)=O)NC(=O)[C@H](C)NC(=O)[C@H](C)NC(=O)CCOCCOCCOCCOCCNC(=O)CCN2C(=O)C=CC2=O)[C@H](O)[C@H](C)O1` [QHL-093-DOX] ({Propanoyl(3-maleimido)-PEG4}-AANL-{Doxorubicin(3'-N)}), which inhibition in vivo at 54 µmol/kg [2] is on record?
A: 94.2%

Q: With `COc1cccc2c1C(=O)c1c(O)c3c(c(O)c1C2=O)C[C@@](O)(C(=O)CO)C[C@@H]3O[C@H]1C[C@H](NC(=O)[C@H](CC(C)C)NC(=O)[C@H](CC(N)=O)NC(=O)[C@H](C)NC(=O)[C@H](C)NC(=O)CCOCCOCCOCCOCCOCCOCCN2C(=O)C=CC2=O)[C@H](O)[C@H](C)O1` [QHL-012-DOX] ({Mal(CH2CH2O)6CH2CH2CO}-AANL-{Doxorubicin(3'-N)}) as the molecule, how does the “Tumor volume (mm^3) Day 28” value [2] read?
A: 197.4 ± 104.5 mm^3

Q: And the inhibition in vivo at 54 µmol/kg [2]?
A: 93.2%

Q: For `COc1cccc2c1C(=O)c1c(O)c3c(c(O)c1C2=O)C[C@@](O)(C(=O)CO)C[C@@H]3O[C@H]1C[C@H](NC(=O)[C@H](CC(C)C)NC(=O)[C@H](CC(N)=O)NC(=O)[C@H](C)NC(=O)[C@H](C)NC(=O)CCOCCOCCOCCOCCOCCOCCNC(=O)CCN2C(=O)C=CC2=O)[C@H](O)[C@H](C)O1` [QHL-096-DOX] ({Propanoyl(3-maleimido)-PEG6}-AANL-{Doxorubicin(3'-N)}), which inhibition in vivo at 54 µmol/kg [2] is on record?
A: 100%
